{"source": "patent US8901337B2", "about": "“Metal complexes having dual histone deacetylase inhibitory and DNA-binding activity” (Royal College of Surgeons in Ireland, priority 2009, dated 2014)", "key": {"[1]": {"tested_on": "closed circular supercoiled pUC19 plasmid DNA", "assay": "DNA unwinding, agarose gel mobility shift assay", "format": "binding", "conditions": "37° C., 48 h, range of concentrations", "protocol": "Platinum compounds, such as cisplatin, that unwind the DNA duplex reduces the number of supercoils in closed circular DNA so that their number decreases. This decrease upon binding of unwinding agents causes a decrease in the rate of migration of DNA through agarose gel. Unwinding of closed circular supercoiled pUC19 plasmid DNA incubated with cis-[Pt^II(NH3)2(malSAHA−2H)] was assayed by an agarose gel mobility shift assay. Samples of plasmid DNA were incubated with platinum complexes at 37° C. in the dark for 48 h. All samples were subjected to electrophoresis on 1% native agarose gel running at 25° C. with TAE buffer and the voltage set at 25 V. The gels were then stained with EtBr, followed by photography with transilluminator.^16"}, "[2]": {"target": "T1, HDAC1 (Homo sapiens, UniProt Q13547)", "T1 construct": "purchased Cayman Chemicals, Ann Arbor, USA", "T1 sequence (Q13547 whole entry)": "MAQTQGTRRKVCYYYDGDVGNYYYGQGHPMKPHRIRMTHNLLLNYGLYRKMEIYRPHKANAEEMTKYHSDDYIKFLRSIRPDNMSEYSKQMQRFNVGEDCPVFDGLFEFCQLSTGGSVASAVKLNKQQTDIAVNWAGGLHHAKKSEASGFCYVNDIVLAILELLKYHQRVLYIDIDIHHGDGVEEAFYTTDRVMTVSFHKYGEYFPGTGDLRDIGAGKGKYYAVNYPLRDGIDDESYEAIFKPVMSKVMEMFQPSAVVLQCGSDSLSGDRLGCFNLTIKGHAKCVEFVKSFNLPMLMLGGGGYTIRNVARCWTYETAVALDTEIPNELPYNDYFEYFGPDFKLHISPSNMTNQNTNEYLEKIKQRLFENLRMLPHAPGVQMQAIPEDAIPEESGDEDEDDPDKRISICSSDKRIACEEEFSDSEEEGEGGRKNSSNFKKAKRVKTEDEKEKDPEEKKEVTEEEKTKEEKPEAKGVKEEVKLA", "assay": "Cayman HDAC1 Inhibitor Screening Assay Kit (fluorescence)", "format": "biochemical", "protocol": "The assay provides a fast two-step fluorescence-based method for measuring HDAC activity. Briefly, in the first step an acetylated lysine residue was incubated with HDAC1 and potential inhibitors. Deacetylation sensitises the substrate so that treatment with the HDAC developer in the second step releases a fluorescent product. The fluorescent reaction product was analysed using a plate reader with an excitation wavelengths of 350 nm and emission wavelengths of 460 nm."}, "[3]": {"tested_on": "caspase-3 activation in A2780 P cells", "assay": "Caspase-3 colourimetric assay, A2780 P", "format": "cell-based, human", "conditions": "72 hr, IC50 and IC75, FIG. 20", "protocol": "(§1) Both floating and attached cells were collected by centrifugation. Cells, at a density of 1.5×10^6 cells/ml were washed with PBS and then re-suspended in chilled cell lysis buffer (supplied in the Caspase-3 colourimetric assay kit, Calbiochem, UK). Cells were incubated on ice for 10 min and then centrifuged for 1 min at 10,000 g. The cytosolic fraction (supernatant) was collected into a fresh tube and 50 μl (2 mg/ml) of each protein sample was transferred to a 96 well plate and diluted with lysis buffer. A 50 μl aliquot of X2 reaction buffer, containing 10 mM DTT was added, followed by 5 μl of 4 mM DEVD-pNA substrate to give a final concentration of 200 μM. The plate was then incubated at 37° C. for 1-2 h. OD was determined at 400 nm using an Anthos HT-II microtitreplate reader. The fold increase in caspase-3 and -9 activities was determined by comparing results to that obtained with un-induced control."}, "[4]": {"tested_on": "caspase-9 activation in A2780 cisR cells", "assay": "Caspase-9 assay, A2780 cisR", "format": "cell-based, human", "conditions": "72 hr, IC50 and IC75, FIG. 23", "protocol": "as §1"}, "[5]": {"tested_on": "caspase-9 activation in A2780 P cells", "assay": "Caspase-9 assay, A2780 P", "format": "cell-based, human", "conditions": "72 hr, IC50 and IC75, FIG. 22", "protocol": "as §1"}, "[6]": {"tested_on": "A2780 cisR cells", "assay": "Inhibition of DNA synthesis, BrdU incorporation assay, A2780 cisR", "format": "cell-based, human", "conditions": "72 hr, FIG. 19", "protocol": "(§2) DNA synthesis was determined using 5-bromo-2-deoxyuridine (BrdU) colourimetric incorporation assay.^18 A2780 P and A2780 cisR cells were seeded into 96 well plates and allowed to adhere overnight. All test agents were added and incubated for 72 hr prior to the addition of BrdU (10 μM per well). Plates were then incubated at 37° C. for 4 h and incorporation was quantified by ELISA (Calbiochem)."}, "[7]": {"tested_on": "A2780 P cells", "assay": "Inhibition of DNA synthesis, BrdU incorporation assay, A2780 P", "format": "cell-based, human", "conditions": "72 hr, FIG. 18", "protocol": "as §2"}}, "data": [{"compound": "[NH2][Pt]1([NH2])[O]C(=O)C(Cc2ccc(NC(=O)CCCCCCC(=O)NO)cc2)C(=O)[O]1", "note": "[cis-[Pt(NH3)2(malSAHA−2H)], cis-[Pt(NH3)2(malSAHA−2H)].3H2O]", "values": [{"measurement": "unwinding of negatively supercoiled pUC19 plasmid DNA (DNA binding)", "setting": "[1]", "result": "can induce unwinding in negatively supercoiled pUC19 plasmid DNA"}, {"measurement": "inhibition of HDAC1 (in words)", "setting": "[2]", "result": "inhibit HDAC1"}, {"measurement": "IC50", "setting": "[2]; read-out: IC50 against HDAC I at 200 μM, at 200 μM", "result": 1140, "unit": "nM"}]}, {"compound": "[NH2][Pt]1([NH2])[O]C(=O)C(Cc2ccc(NS(=O)(=O)c3ccc(/C=C/C(=O)NO)cc3)cc2)C(=O)[O]1", "note": "[cis-[Pt(NH3)2(malBel−2H)], cis-[Pt(NH3)2(malBel−2H)].1.5H2O]", "values": [{"measurement": "caspase-3 activity", "setting": "[3]", "result": "an increase in both Caspase-3 and -9 activities"}, {"measurement": "caspase-9 activity", "setting": "[4]", "result": "an increase in both Caspase-3 and -9 activities"}, {"measurement": "caspase-9 activity", "setting": "[5]", "result": "an increase in both Caspase-3 and -9 activities"}, {"measurement": "effect on DNA synthesis, BrdU incorporation", "setting": "[6]", "result": "dose-dependant decrease in DNA synthesis"}, {"measurement": "effect on DNA synthesis, BrdU incorporation", "setting": "[7]", "result": "dose-dependant decrease in DNA synthesis"}]}]}
